Measured values reported in patent publication US20160168126A1, “CHEMICAL COMPOUNDS” (SYNGENTA LIMITED, priority 2013, published 2016).

Test system: a variety of test species
Assay: Post-emergence herbicidal activity (glasshouse, sprayed 8 days after sowing, evaluated after 13 days)
Assay type: in vivo
Settings: scale 0-5
Description: Seeds of a variety of test species were sown in standard soil in pots. After 8 days cultivation (post-emergence) under controlled conditions in a glasshouse (at 24/16° C., day/night; 14 hours light; 65% humidity), the plants were sprayed with an aqueous spray solution derived from the formulation of the technical active ingredient in acetone/water (50:50) solution containing 0.5% Tween 20 (polyoxyethelyene sorbitan monolaurate, CAS RN 9005-64-5). The test plants were then grown in a glasshouse under controlled conditions (at 24/16° C., day/night; 14 hours light; 65% humidity) and watered twice daily. After 13 days, the test was evaluated (5=total damage to plant; 0=no damage to plant).

Compound | Post-emergence herbicidal damage score, ABUTH (Abutilon theophrasti) (1000 g/ha) | Post-emergence herbicidal damage score, ALOMY (Alopecurus myosuroides) (1000 g/ha) | Post-emergence herbicidal damage score, AMARE (Amaranthus retroflexus) (1000 g/ha) | Post-emergence herbicidal damage score, ECHCG (Echinochloa crus-galli) (1000 g/ha) | Post-emergence herbicidal damage score, SETFA (Setaria faberi) (1000 g/ha) | Post-emergence herbicidal damage score, ZEAMX (Zea mays) (1000 g/ha) | Post-emergence herbicidal damage score, ABUTH (Abutilon theophrasti) (250 g/ha) | Post-emergence herbicidal damage score, ALOMY (Alopecurus myosuroides) (250 g/ha) | Post-emergence herbicidal damage score, AMARE (Amaranthus retroflexus) (250 g/ha) | Post-emergence herbicidal damage score, ECHCG (Echinochloa crus-galli) (250 g/ha) | Post-emergence herbicidal damage score, SETFA (Setaria faberi) (250 g/ha) | Post-emergence herbicidal damage score, ZEAMX (Zea mays) (250 g/ha)
CC1=C(Br)C(O)N(c2cc(C(F)(F)F)n(C)n2)C1=O (stereo not drawn) [Compound H4] | 5 | 5 | 5 | 2 | 1 | 0 |  |  |  |  |  | 
CC1=C(Cl)C(O)N(c2nn(C)c3c2CCCCC3(C)C)C1=O (stereo not drawn) [Compound B28] | 4 | 2 | 4 | 3 | 3 | 1 |  |  |  |  |  | 
CC1=C(Cl)C(O)N(c2cc([S+](C)[O-])n(C)n2)C1=O (stereo not drawn) [Compound B26] | 5 | 4 | 5 | 5 | 5 | 4 |  |  |  |  |  | 
CC1=C(Cl)C(O)N(c2ccn(C)n2)C1=O (stereo not drawn) [Compound B31] | 0 | 1 | 3 | 1 | 1 | 1 |  |  |  |  |  | 
CCC1CCCn2nc(N3C(=O)C(C)=C(Cl)C3O)cc21 (mixture of isomers) [Compound G5] | 5 | 4 | 5 | 4 | 4 | 0 |  |  |  |  |  | 
CC(C)=CCc1cc(N2C(=O)C(C)=C(Br)C2O)nn1C (stereo not drawn) [Compound H3] | 0 | 0 | 0 | 0 | 0 | 0 |  |  |  |  |  | 
CC1=C(Cl)C(O)N(c2nn(CC(F)(F)F)c(C)c2C#N)C1=O (stereo not drawn) [Compound C8] | 0 | 0 | 1 | 0 | 0 | 0 |  |  |  |  |  | 
COC1=C(Cl)C(O)N(c2cc(C(C)(C)C)n(C)n2)C1=O (stereo not drawn) [Compound J1, 1-(5-tert-butyl-1-methyl-pyrazol-3-yl)-3-chloro-2-hydroxy-4-methoxy-2H-pyrrol-5-one] | 5 | 5 | 5 | 5 | 5 | 3 |  |  |  |  |  | 
CC1=C(Cl)C(O)N(c2cc(C3CC3)[nH]n2)C1=O (stereo not drawn) [Compound A4] | 5 | 4 | 4 | 5 | 4 | 1 |  |  |  |  |  | 
CCC(C)(CC)c1cc(N2C(=O)C(C)=C(Cl)C2O)n[nH]1 (stereo not drawn) [Compound A7] | 5 | 3 | 5 | 5 | 5 | 1 |  |  |  |  |  | 
CCCC1=C(C)C(O)N(c2nn(C)c(C(C)(C)C)c2C#N)C1=O (stereo not drawn) [Compound D4] | 4 | 3 | 2 | 2 | 4 | 0 |  |  |  |  |  | 
CC1=C(Cl)C(O)N(c2cc3n(n2)CCSC3(C)C)C1=O (stereo not drawn) [Compound G6] | 5 | 4 | 5 | 4 | 4 | 0 |  |  |  |  |  | 
CCC(C)c1cc(N2C(=O)C(C)=C(Cl)C2O)nn1C (mixture of isomers) [Compound B15] | 5 | 4 | 5 | 5 | 5 | 2 |  |  |  |  |  | 
CC1=C(Cl)C(O)N(c2nn(C)c3c2CCC3(C)C)C1=O (stereo not drawn) [Compound B18] | 5 | 4 | 5 | 5 | 5 | 4 |  |  |  |  |  | 
CC1=C(Cl)C(O)N(c2cc(I)n(C)n2)C1=O (stereo not drawn) [Compound B8, 3-chloro-2-hydroxy-1-(5-iodo-1-methyl-pyrazol-3-yl)-4-methyl-2H-pyrrol-5-one] | 5 | 3 | 5 | 4 | 5 | 1 |  |  |  |  |  | 
CC1=C(Cl)C(O)N(c2cc(C(C)(C)C)[nH]n2)C1=O (stereo not drawn) [Compound A1] |  |  |  |  |  |  | 5 | 4 | 2 | 5 | 4 | 0
CC1=C(Cl)C(O)N(c2cc(C(C)(F)C(C)(C)C)n(C)n2)C1=O (mixture of isomers) [Compound B22] | 1 | 1 | 0 | 2 | 3 | 1 |  |  |  |  |  | 
CC1=C(Br)C(O)N(c2cc(C(C)(C)C)n(C)n2)C1=O (stereo not drawn) [Compound H1] | 5 | 4 | 5 | 5 | 3 | 1 |  |  |  |  |  | 
CCn1nc(N2C(=O)C(C)=C(Cl)C2O)c2c1C(C)(C)CC2 (stereo not drawn) [Compound C3] | 5 | 4 | 5 | 5 | 5 | 1 |  |  |  |  |  | 
C/C=C\c1cc(N2C(=O)C(C)=C(Cl)C2O)nn1C (stereo not drawn) [Compound B24] | 5 | 3 | 5 | 4 | 5 | 1 |  |  |  |  |  | 
CC1=C(Cl)C(O)N(c2cc(C#N)n(CC(F)(F)F)n2)C1=O (stereo not drawn) [Compound C7] | 3 | 0 | 0 | 0 | 1 | 0 |  |  |  |  |  | 
COC1=C(C)C(=O)N(c2cc(C(F)(F)F)n(C)n2)C1O (stereo not drawn) [Compound I3] | 5 | 5 | 5 | 5 | 5 | 4 |  |  |  |  |  | 
CC1=C(Cl)C(O)N(c2cc(C(C)C)n(C)n2)C1=O (stereo not drawn) [Compound B5] |  |  |  |  |  |  | 5 | 4 | 5 | 5 | 4 | 3
